Laboratory results as given in ChEMBL document CHEMBL3797052 (Eur J Med Chem, 2016).

Experiments:
CCRF-CEM = assay: Antiproliferative activity against human CCRF-CEM cells assessed as cell growth at 10^-7 M after 48 hrs by sulforhodamine B assay; type: functional; details: read-out: Activity
[1] = Antiproliferative activity against human HOP92 cells assessed as cell growth at 10^-7 M after 48 hrs by sulforhodamine B assay; type: functional; details: HOP-92, 48 h, read-out: Activity
[2] = Antiproliferative activity against human COLO205 cells assessed as cell growth at 10^-7 M after 48 hrs by sulforhodamine B assay; type: functional; details: COLO 205, 48 h, read-out: Activity
[3] = Antiproliferative activity against human LOXIMVI cells assessed as growth inhibition after 48 hrs by sulforhodamine B assay; type: functional; details: LOX IMVI; for CC50: read-out: LC50 (the source's name)
MDA-MB-231 = assay: Antiproliferative activity against human MDA-MB-231 cells assessed as cell growth at 10^-7 M after 48 hrs by sulforhodamine B assay; type: functional; details: MDA-MB-231, 48 h, read-out: Activity
[4] = Antiproliferative activity against human RPMI8226 cells assessed as growth inhibition after 48 hrs by sulforhodamine B assay; type: functional; details: RPMI-8226, 48 h
[5] = target: RAF proto-oncogene serine/threonine-protein kinase (Homo sapiens, UniProt P04049); assay: Inhibition of human C-RAF measured after 40 mins by scintillation counting
[6] = Antiproliferative activity against human COLO205 cells assessed as cell growth at 10^-8 M after 48 hrs by sulforhodamine B assay; type: functional; details: COLO 205, 48 h, read-out: Activity
[7] = Antiproliferative activity against human LOXIMVI cells assessed as cell growth at 10^-6 M after 48 hrs by sulforhodamine B assay; type: functional; details: LOX IMVI, read-out: Activity
Malme-3M = assay: Antiproliferative activity against human MALME-3M cells assessed as cell growth at 10^-6 M after 48 hrs by sulforhodamine B assay; type: functional; details: read-out: Activity
[8] = Antiproliferative activity against human SKOV3 cells assessed as cell growth at 10^-8 M after 48 hrs by sulforhodamine B assay; type: functional; details: SK-OV-3, 48 h, read-out: Activity
SK-MEL-2 [9] = assay: Antiproliferative activity against human SK-MEL-2 cells assessed as cell growth at 10^-6 M after 48 hrs by sulforhodamine B assay; type: functional; details: SK-MEL-2, 48 h, read-out: Activity
[10] = Antiproliferative activity against human UACC257 cells assessed as cell growth at 10^-6 M after 48 hrs by sulforhodamine B assay; type: functional; details: UACC-257, 48 h, read-out: Activity
[11] = Antiproliferative activity against human NCI-ADR-RES cells assessed as cell growth at 10^-6 M after 48 hrs by sulforhodamine B assay; type: functional; details: read-out: Activity
SK-MEL-2 [12] = assay: Antiproliferative activity against human SK-MEL-2 cells assessed as cell growth at 10^-4 M after 48 hrs by sulforhodamine B assay; type: functional; details: SK-MEL-2, 48 h, read-out: Activity
[13] = Antiproliferative activity against human OVCAR8 cells assessed as cell growth at 10^-4 M after 48 hrs by sulforhodamine B assay; type: functional; details: OVCAR-8, 48 h, read-out: Activity
ACHN = assay: Antiproliferative activity against human ACHN cells assessed as cell growth at 10^-4 M after 48 hrs by sulforhodamine B assay; type: functional; details: read-out: Activity
SK-MEL-5 = assay: Antiproliferative activity against human SK-MEL-5 cells assessed as growth inhibition after 48 hrs by sulforhodamine B assay; type: functional; details: SK-MEL-5, 48 h; for CC50: read-out: LC50 (the source's name)

Chain of RAF proto-oncogene serine/threonine-protein kinase (P04049 whole entry): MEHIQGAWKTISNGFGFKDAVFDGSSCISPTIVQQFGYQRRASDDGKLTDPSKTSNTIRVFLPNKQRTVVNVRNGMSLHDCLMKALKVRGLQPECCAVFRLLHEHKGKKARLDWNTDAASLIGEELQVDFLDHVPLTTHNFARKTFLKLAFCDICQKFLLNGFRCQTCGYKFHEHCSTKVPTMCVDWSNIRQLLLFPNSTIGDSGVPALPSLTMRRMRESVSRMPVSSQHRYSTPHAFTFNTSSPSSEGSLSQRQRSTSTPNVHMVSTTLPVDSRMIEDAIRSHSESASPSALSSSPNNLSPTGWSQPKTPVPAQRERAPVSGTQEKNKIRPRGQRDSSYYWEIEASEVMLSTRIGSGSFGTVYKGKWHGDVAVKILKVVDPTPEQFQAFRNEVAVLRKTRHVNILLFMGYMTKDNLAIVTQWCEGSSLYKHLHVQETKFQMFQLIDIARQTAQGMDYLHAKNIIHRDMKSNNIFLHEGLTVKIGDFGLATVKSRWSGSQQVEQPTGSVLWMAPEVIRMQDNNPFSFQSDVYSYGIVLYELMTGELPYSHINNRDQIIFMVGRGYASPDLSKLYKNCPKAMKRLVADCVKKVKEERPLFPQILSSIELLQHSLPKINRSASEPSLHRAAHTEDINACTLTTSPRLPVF

Row | Structure (SMILES) | growth at 0.1 µM (CCRF-CEM) [%] | growth at 0.1 µM [1] [%] | growth at 0.1 µM [2] [%] | GI50 [3] [nM] | TGI [3] [µM] | CC50 [3] [µM] | growth at 0.1 µM (MDA-MB-231) [%] | GI50 [4] [nM] | LC50 [4] [µM] | IC50 [5] [nM] | growth at 0.01 µM [6] [%] | growth at 1 µM [7] [%] | growth at 1 µM (Malme-3M) [%] | growth at 0.01 µM [8] [%] | growth at 1 µM (SK-MEL-2 [9]) [%] | growth at 1 µM [10] [%] | growth at 1 µM [11] [%] | growth at 100 µM (SK-MEL-2 [12]) [%] | growth at 100 µM [13] [%] | growth at 100 µM (ACHN) [%] | other results
1 | CNC(=O)c1cc(Oc2ccc3nc(NC(=O)Nc4ccc(Cl)c(C(F)(F)F)c4)sc3c2)ccn1 | 99 | 80 | 106 | 2680 | > 100 | > 100 | 109 | 2220 | > 100 | 111 | 98 | 87 | 79 | 97 | 89 | 90 | 94 | -18 | -25 | -62 | 
2 | CNC(=O)c1cc(Oc2ccc3nc(NC(=O)Nc4ccc(Cl)c(Cl)c4)sc3c2)ccn1 | 107 | 110 | 105 | 1820 | 3.52 | 6.82 | 97 | 3660 | > 100 | 15 | 102 | 95 | 76 | 110 | 105 | 89 | 103 | -48 | -52 | -18 | GI50 (SK-MEL-5): 2240 nM; TGI (SK-MEL-5): 5.58 µM; CC50 (SK-MEL-5): > 100 µM; TGI [4]: > 100 µM
3 | CNC(=O)c1cc(Oc2ccc3nc(NC(=O)c4cc(C(F)(F)F)cc(C(F)(F)F)c4)sc3c2)ccn1 | 108 | 86 | 91 | 3390 | 15.1 | 97.5 | 107 | 2420 | > 100 | 695 | 99 | 94 | 80 | 100 | 90 | 101 | 96 | -53 | -61 | -82 | GI50 (SK-MEL-5): 1680 nM; TGI (SK-MEL-5): 3.63 µM; CC50 (SK-MEL-5): 7.87 µM; TGI [4]: > 100 µM
